Source: patent US20190022152A1, “MICROBIOME RESPONSE TO AGENTS” (Yeda Research and Development Co., Ltd., priority 2014, published 2019)
Like-named read-outs stand apart in the source and are kept apart here.

System: fecal microbiota
Details: for Fold change (week 11/week 0) in relative species abundance: fecal samples, 11 weeks consumption
Procedure: Illumina sequence reads were mapped to the human microbiome reference genome database of the Human Microbiome Project [www(dot)hmpdacc(dot)org/HMREFG/^32], and to a gut microbial gene catalogue^33 using GEM mapper^58 with the following parameters: • -m 3 -s 0 -q offset-33 -gem-quality-threshold 26
Microbial species abundance was measured as the fraction of reads that mapped to a single species in the database. An EM algorithm adapted from Pathoscope^59 was employed to determine the correct assignment of reads that mapped to more than one species. We considered only species for which at least 10% of the genome was covered (each coverage bin was 10,000-bp long) in at least one of the growth conditions (saccharin, water, or glucose). Reads mapped to the gut microbial gene catalogue were assigned a KEGG^34,35 ID according to the mapping available with the catalogue. Genes were subsequently mapped to KEGG pathways, and only pathways whose gene coverage was above 0.2 were included.

O=C1NS(=O)(=O)c2ccccc21 [saccharin]
changes in microbial relative species abundance (11 weeks commercial saccharin vs glucose or water, F-test p<10^−10): largest changes | Fold change (week 11/week 0) in relative species abundance (Symbol BACT_9, Number 996): 0.65 | Fold change (week 11/week 0) in relative species abundance (Symbol BACT_22, Number 639): 0.36 | Fold change (week 11/week 0) in relative species abundance (Symbol BACT_38, Number 780): 0.50 | Fold change (week 11/week 0) in relative species abundance (Symbol BACT_49, Number 420): 0.02 | Fold change (week 11/week 0) in relative species abundance (Symbol BACT_60, Number 752): 0.71 | Fold change (week 11/week 0) in relative species abundance (Symbol BACT_65, Number 918): 6.73 | Fold change (week 11/week 0) in relative species abundance (Symbol BACT_70, Number 863): 9.41 | Fold change (week 11/week 0) in relative species abundance (Symbol BACT_85, Number 934): 0.45 | Fold change (week 11/week 0) in relative species abundance (Symbol BACT_142, Number 843): 0.42 | Fold change (week 11/week 0) in relative species abundance (Symbol BACT_170, Number 883): 0.48 | Fold change (week 11/week 0) in relative species abundance (Symbol BACT_171, Number 748): 0.56 | Fold change (week 11/week 0) in relative species abundance (Symbol BACT_172, Number 768): 1.03 | Fold change (week 11/week 0) in relative species abundance (Symbol BACT_178, Number 921): 0.28 | Fold change (week 11/week 0) in relative species abundance (Symbol BACT_181, Number 767): 0.40 | Fold change (week 11/week 0) in relative species abundance (Symbol BACT_185, Number 633): 8.79 | Fold change (week 11/week 0) in relative species abundance (Symbol BACT_189, Number 636): 1.92 | Fold change (week 11/week 0) in relative species abundance (Symbol BACT_192, Number 995): 0.36 | Fold change (week 11/week 0) in relative species abundance (Symbol BACT_194, Number 846): 0.51 | Fold change (week 11/week 0) in relative species abundance (Symbol BACT_195, Number 523): 0.40 | Fold change (week 11/week 0) in relative species abundance (Symbol BACT_196, Number 395): 12.66 | Fold change (week 11/week 0) in relative species abundance (Symbol BACT_225, Number 953): 0.44 | Fold change (week 11/week 0) in relative species abundance (Symbol BACT_258, Number 620): 0.55 | Fold change (week 11/week 0) in relative species abundance (Symbol BACT_260, Number 1443): 0.55 | Fold change (week 11/week 0) in relative species abundance (Symbol BACT_300, Number 769): 0.50 | Fold change (week 11/week 0) in relative species abundance (Symbol BACT_371, Number 960): 2.13 | Fold change (week 11/week 0) in relative species abundance (Symbol BACT_374, Number 805): 0.34 | Fold change (week 11/week 0) in relative species abundance (Symbol BACT_392, Number 915): 0.66 | Fold change (week 11/week 0) in relative species abundance (Symbol BACT_393, Number 932): 0.53 | Fold change (week 11/week 0) in relative species abundance (Symbol BACT_397, Number 914): 0.45 | Fold change (week 11/week 0) in relative species abundance (Symbol BACT_409, Number 845): 9.91 | Fold change (week 11/week 0) in relative species abundance (Symbol BACT_413, Number 847): 1.25 | Fold change (week 11/week 0) in relative species abundance (Symbol BACT_418, Number 749): 0.22 | Fold change (week 11/week 0) in relative species abundance (Symbol BACT_419, Number 920): 0.15 | Fold change (week 11/week 0) in relative species abundance (Symbol BACT_420, Number 922): 0.33 | Fold change (week 11/week 0) in relative species abundance (Symbol BACT_424, Number 906): 0.29 | Fold change (week 11/week 0) in relative species abundance (Symbol BACT_449, Number 772): 2.90 | Fold change (week 11/week 0) in relative species abundance (Symbol BACT_463, Number 719): 0.00 | Fold change (week 11/week 0) in relative species abundance (Symbol BACT_496, Number 765): 2.97 | Fold change (week 11/week 0) in relative species abundance (Symbol BACT_499, Number 35): 0.24 | Fold change (week 11/week 0) in relative species abundance (Symbol BACT_511, Number 591): 3.71 | Fold change (week 11/week 0) in relative species abundance (Symbol BACT_535, Number 940): 0.14 | Fold change (week 11/week 0) in relative species abundance (Symbol BACT_539, Number 117): 0.22 | Fold change (week 11/week 0) in relative species abundance (Symbol BACT_551, Number 907): 0.62 | Fold change (week 11/week 0) in relative species abundance (Symbol BACT_572, Number 963): 0.70 | Fold change (week 11/week 0) in relative species abundance (Symbol BACT_586, Number 849): 0.70 | Fold change (week 11/week 0) in relative species abundance (Symbol BACT_627, Number 886): 0.16 | Fold change (week 11/week 0) in relative species abundance (Symbol BACT_632, Number 871): 3.17 | Fold change (week 11/week 0) in relative species abundance (Symbol BACT_681, Number 125): 0.00 | Fold change (week 11/week 0) in relative species abundance (Symbol BACT_686, Number 1007): 0.00 | Fold change (week 11/week 0) in relative species abundance (Symbol BACT_722, Number 377): 1.88 | Fold change (week 11/week 0) in relative species abundance (Symbol BACT_769, Number 610): 3.38 | Fold change (week 11/week 0) in relative species abundance (Symbol BACT_843, Number 1318): 0.16 | Fold change (week 11/week 0) in relative species abundance (Symbol BACT_850, Number 394): 2.51 | Fold change (week 11/week 0) in relative species abundance (Symbol BACT_852, Number 766): 0.77 | Fold change (week 11/week 0) in relative species abundance (Symbol BACT_855, Number 835): 0.34 | Fold change (week 11/week 0) in relative species abundance (Symbol BACT_890, Number 163): 0.15 | Fold change (week 11/week 0) in relative species abundance (Symbol BACT_913, Number 904): 1.10 | Fold change (week 11/week 0) in relative species abundance (Symbol BACT_915, Number 1315): 10.39 | Fold change (week 11/week 0) in relative species abundance (Symbol BACT_931, Number 1088): 0.53 | Fold change (week 11/week 0) in relative species abundance (Symbol BACT_1001, Number 933): 0.75 | Fold change (week 11/week 0) in relative species abundance (Symbol BACT_1025, Number 751): 0.53 | Fold change (week 11/week 0) in relative species abundance (Symbol BACT_1043, Number 948): 1.08 | Fold change (week 11/week 0) in relative species abundance (Symbol BACT_1083, Number 1008): 0.00 | Fold change (week 11/week 0) in relative species abundance (Symbol BACT_1131, Number 942): 0.34 | Fold change (week 11/week 0) in relative species abundance (Symbol BACT_1311, Number 1259): 0.34 | Fold change (week 11/week 0) in relative species abundance (Symbol BACT_1314, Number 1399): 0.67 | Fold change (week 11/week 0) in relative species abundance (Symbol BACT_1315, Number 1395): 0.46 | Fold change (week 11/week 0) in relative species abundance (Symbol BACT_1321, Number 1255): 3.20 | Fold change (week 11/week 0) in relative species abundance (Symbol BACT_1322, Number 1396): 0.91 | Fold change (week 11/week 0) in relative species abundance (Symbol BACT_1324, Number 1264): 12.01 | Fold change (week 11/week 0) in relative species abundance (Symbol BACT_1348, Number 1311): 9.24 | Fold change (week 11/week 0) in relative species abundance (Symbol BACT_1378, Number 1375): 141.18 | Fold change (week 11/week 0) in relative species abundance (Symbol BACT_1427, Number 1266): 0.00 | Fold change (week 11/week 0) in relative species abundance (Symbol BACT_1442, Number 1400): 2.16 | Fold change (week 11/week 0) in relative species abundance (Symbol BACT_1457, Number 1337): 0.23 | Fold change (week 11/week 0) in relative species abundance (Symbol BACT_1496, Number 1321): 2.65 | Fold change (week 11/week 0) in relative species abundance (Symbol BACT_1501, Number 1331): 0.17 | Fold change (week 11/week 0) in relative species abundance (Symbol BACT_1526, Number 1227): 0.07 | Fold change (week 11/week 0) in relative species abundance (Symbol BACT_1555, Number 1469): 0.21 | Fold change (week 11/week 0) in relative species abundance (Symbol BACT_1569, Number 1462): 0.30 | Fold change (week 11/week 0) in relative species abundance (Symbol BACT_1595, Number 1533): 0.00 | Fold change (week 11/week 0) in relative species abundance (Symbol BACT_1596, Number 1502): 0.12 | Fold change (week 11/week 0) in relative species abundance (Symbol BACT_1656, Number 1503): 0.12 | Fold change (week 11/week 0) in relative species abundance (Symbol BACT_3004, Number 5797): 11.92 | Fold change (week 11/week 0) in relative species abundance (Symbol BACT_3005, Number 5799): 1.01 | Fold change (week 11/week 0) in relative species abundance (Symbol BACT_3007, Number 5798): 1.89 | Fold change (week 11/week 0) in relative species abundance (Symbol BACT_3024, Number 5841): 0.02 | Fold change (week 11/week 0) in relative species abundance (Symbol BACT_3045, Number 5818): 0.01 | Fold change (week 11/week 0) in relative species abundance (Symbol BACT_3056, Number 5836): 0.00 | Fold change (week 11/week 0) in relative species abundance (Symbol BACT_3058, Number 5816): 0.11 | Fold change (week 11/week 0) in relative species abundance (Symbol BACT_3060, Number 5821): 0.00 | Fold change (week 11/week 0) in relative species abundance (Symbol BACT_3062, Number 5800): 0.99 | Fold change (week 11/week 0) in relative species abundance (Symbol BACT_3085, Number 5842): 0.03 | Fold change (week 11/week 0) in relative species abundance (Symbol BACT_3092, Number 5793): 2.71 | Fold change (week 11/week 0) in relative species abundance (Symbol BACT_4040, Number 5769): 1.16 | Fold change (week 11/week 0) in relative species abundance (Symbol BACT_4042, Number 5770): 0.04 | Fold change (week 11/week 0) in relative species abundance (Symbol EUKY_22, Number 1758): 0.45 | Fold change (week 11/week 0) in relative species abundance (Symbol EUKY_141, Number 1875): 0.53 | Fold change (week 11/week 0) in relative species abundance (Symbol EUKY_222, Number 1954): 0.49 | Fold change (week 11/week 0) in relative species abundance (Symbol V1RL3522, Number 3522): 0.02
